{"source": "ChEMBL document CHEMBL5113463", "about": "“Discovery and preclinical evaluations of JBD0131, a novel nitrodihydro-imidazooxazole anti-tuberculosis agent” (Bioorg Med Chem Lett, 2022)", "key": {"[1]": {"assay": "Drug distribution in Sprague-Dawley rat intestinal wall at 10 mg/kg, po administered as C14-lableled compound and assessed as radioactivity", "assay_type": "ADME, organism-based, Intestine", "conditions": "in vivo; call rule not given here"}, "[2]": {"assay": "AUC (0-last) in CD-1 mouse at 5 mg/kg, po", "assay_type": "ADME, organism-based", "design": "dose 5 mg/kg, route po", "conditions": "mouse, in vivo"}, "Cytochrome P450 2D6": {"biological_target": "Cytochrome P450 2D6 (Homo sapiens, UniProt P10635)", "sequence (P10635 whole entry)": "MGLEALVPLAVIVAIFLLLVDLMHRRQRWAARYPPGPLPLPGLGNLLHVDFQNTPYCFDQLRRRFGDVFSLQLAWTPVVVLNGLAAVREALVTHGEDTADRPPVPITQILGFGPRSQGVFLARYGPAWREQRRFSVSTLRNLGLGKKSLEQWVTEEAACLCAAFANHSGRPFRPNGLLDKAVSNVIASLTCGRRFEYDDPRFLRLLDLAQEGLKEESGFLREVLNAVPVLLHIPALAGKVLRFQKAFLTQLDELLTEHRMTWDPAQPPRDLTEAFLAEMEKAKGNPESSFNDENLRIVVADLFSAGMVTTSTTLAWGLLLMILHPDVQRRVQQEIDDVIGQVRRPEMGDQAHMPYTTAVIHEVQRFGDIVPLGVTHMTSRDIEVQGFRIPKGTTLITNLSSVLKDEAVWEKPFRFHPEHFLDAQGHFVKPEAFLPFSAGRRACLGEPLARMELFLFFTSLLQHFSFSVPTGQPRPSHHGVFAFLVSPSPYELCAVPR", "assay": "Inhibition of CYP2D6 (unknown origin)", "assay_type": "ADME"}, "[3]": {"assay": "Oral bioavailability in Sprague-Dawley rat at 4 mg/kg", "assay_type": "ADME, organism-based", "conditions": "in vivo"}, "[4]": {"assay": "AUC (0-last) in Sprague-Dawley rat at 4 mg/kg, po", "assay_type": "ADME, organism-based", "conditions": "in vivo"}, "[5]": {"assay": "Clearance in Beagle dog at 0.5 mg/kg, iv", "assay_type": "ADME, organism-based, Canis lupus familiaris", "conditions": "in vivo"}, "[6]": {"assay": "Metabolic stability in mouse liver microsomes assessed as half life", "assay_type": "ADME, Microsome"}, "[7]": {"assay": "Oral bioavailability in CD-1 mouse at 5 mg/kg", "assay_type": "ADME, organism-based", "conditions": "mouse, in vivo, po, 5 mg/kg"}, "[8]": {"system": "Mycobacterium tuberculosis", "assay": "In vivo antimycobacterial activity against Mycobacterium tuberculosis Erdman infected mouse acute tuberculosis infection model assessed as reduction in log10 CFU at 10 mg/kg for 3 weeks at 5 days/week relative to control", "assay_type": "functional"}, "[9]": {"assay": "Cmax in Beagle dog at 2 mg/kg, po", "assay_type": "ADME, organism-based, Canis lupus familiaris", "design": "dose 2 mg/kg, route po", "conditions": "in vivo"}, "[10]": {"assay": "Apparent permeability across apical to basolateral side in dog MDCK cells", "assay_type": "ADME, cell-based, Canis lupus familiaris"}, "[11]": {"assay": "Cmax in Sprague-Dawley rat at 4 mg/kg, po", "assay_type": "ADME, organism-based", "design": "dose 4 mg/kg, route po", "conditions": "in vivo"}, "Cytochrome P450 1A2": {"biological_target": "T1, Cytochrome P450 1A2 (Homo sapiens, UniProt P05177)", "T1 sequence (P05177 whole entry)": "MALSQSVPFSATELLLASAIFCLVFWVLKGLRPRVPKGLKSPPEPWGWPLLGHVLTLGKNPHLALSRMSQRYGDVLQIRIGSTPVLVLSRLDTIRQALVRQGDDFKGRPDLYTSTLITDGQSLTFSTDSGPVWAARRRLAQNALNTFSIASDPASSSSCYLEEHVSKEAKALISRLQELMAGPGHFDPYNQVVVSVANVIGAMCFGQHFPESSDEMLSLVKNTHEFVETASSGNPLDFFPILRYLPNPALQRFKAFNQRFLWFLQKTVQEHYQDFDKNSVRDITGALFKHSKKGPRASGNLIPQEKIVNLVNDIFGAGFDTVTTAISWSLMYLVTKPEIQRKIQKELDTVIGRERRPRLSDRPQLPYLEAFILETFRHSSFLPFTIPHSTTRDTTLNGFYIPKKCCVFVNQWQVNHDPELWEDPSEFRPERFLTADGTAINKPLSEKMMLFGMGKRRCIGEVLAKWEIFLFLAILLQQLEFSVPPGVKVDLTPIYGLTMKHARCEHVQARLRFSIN", "assay": "Inhibition of CYP1A2 (unknown origin)", "assay_type": "ADME"}, "[12]": {"assay": "Metabolic stability in dog liver microsomes assessed as half life", "assay_type": "ADME, Canis lupus familiaris, Microsome"}, "[13]": {"assay": "Plasma protein binding in human assessed as bound fraction", "assay_type": "ADME, cell-free", "conditions": "read-out: PPB (converted)"}, "[14]": {"assay": "Clearance in Sprague-Dawley rat at 1 mg/kg, iv", "assay_type": "ADME, organism-based", "conditions": "in vivo"}, "[15]": {"assay": "Aqueous solubility of compound at pH 2.0", "assay_type": "physicochemical", "conditions": "buffer"}, "[16]": {"assay": "Plasma protein binding in dog assessed as bound fraction", "assay_type": "ADME, cell-free, Canis lupus familiaris", "conditions": "read-out: PPB (converted)"}, "[17]": {"system": "Mycobacterium tuberculosis", "assay": "Antimycobacterial activity against clinical isolate drug susceptible Mycobacterium tuberculosis H37Rv assessed as bacterial growth inhibition", "assay_type": "functional"}, "[18]": {"system": "Mycobacterium tuberculosis", "assay": "Antimycobacterial activity against Mycobacterium tuberculosis H37Rv assessed as bacterial growth inhibition incubated for 7 days by MABA assay", "assay_type": "functional", "conditions": "168 h, time 7 day"}, "[19]": {"assay": "Drug distribution in Sprague-Dawley rat lung at 10 mg/kg, po administered as C14-lableled compound and assessed as radioactivity", "assay_type": "ADME, organism-based", "conditions": "in vivo"}, "[20]": {"assay": "Volume of distribution in Beagle dog at 0.5 mg/kg, iv", "assay_type": "ADME, organism-based, Canis lupus familiaris", "conditions": "in vivo"}, "Cytochrome P450 2C8": {"biological_target": "T2, Cytochrome P450 2C8 (Homo sapiens, UniProt P10632)", "T2 sequence (P10632 whole entry)": "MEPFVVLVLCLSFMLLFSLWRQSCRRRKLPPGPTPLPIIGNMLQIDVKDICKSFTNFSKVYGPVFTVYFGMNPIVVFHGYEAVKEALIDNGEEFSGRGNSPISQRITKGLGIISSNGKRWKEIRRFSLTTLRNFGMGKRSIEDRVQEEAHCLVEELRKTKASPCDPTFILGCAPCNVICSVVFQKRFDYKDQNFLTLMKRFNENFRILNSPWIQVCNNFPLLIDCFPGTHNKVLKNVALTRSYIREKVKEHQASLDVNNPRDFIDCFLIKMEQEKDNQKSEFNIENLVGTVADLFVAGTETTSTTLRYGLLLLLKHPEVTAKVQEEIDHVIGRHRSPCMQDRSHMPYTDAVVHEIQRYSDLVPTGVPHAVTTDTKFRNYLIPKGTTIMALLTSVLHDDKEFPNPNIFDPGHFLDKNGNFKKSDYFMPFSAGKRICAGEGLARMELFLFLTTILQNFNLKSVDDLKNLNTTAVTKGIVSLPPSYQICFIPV", "assay": "Inhibition of CYP2C8 (unknown origin)", "assay_type": "ADME"}}}
{"smiles": "C[C@]1(CN2Cc3nc(-c4ccc(F)cc4)sc3C2)CN=C(N)O1", "values": [{"measurement": "Drug uptake", "setting": "[1]", "result": "Active"}, {"measurement": "AUClast", "setting": "[2]", "result": 7247, "unit": "ng·h/mL"}, {"measurement": "IC50", "setting": "Cytochrome P450 2D6", "result": 80.6, "unit": "µM"}, {"measurement": "bioavailability", "setting": "[3]", "result": 66.9, "unit": "%"}, {"measurement": "AUClast", "setting": "[4]", "result": 4520, "unit": "ng·h"}, {"measurement": "clearance", "setting": "[5]", "result": 12, "unit": "mL/min/kg"}, {"measurement": "half-life", "setting": "[6]", "result": 1.05, "unit": "h"}, {"measurement": "F", "setting": "[7]", "result": 31.2, "unit": "%"}, {"measurement": "Activity", "setting": "[8]", "result": 4, "unit": "log10CFU"}, {"measurement": "Cmax", "setting": "[9]", "result": 141, "unit": "nM"}, {"measurement": "Papp A→B", "setting": "[10]", "result": 20.9, "unit": "×10⁻⁶ cm/s"}, {"measurement": "Cmax", "setting": "[11]", "result": 526, "unit": "nM"}, {"measurement": "IC50", "setting": "Cytochrome P450 1A2", "result": "> 100", "unit": "µM"}, {"measurement": "half-life", "setting": "[12]", "result": 2.52, "unit": "h"}, {"measurement": "fraction unbound", "setting": "[13]", "result": 0.018}, {"measurement": "clearance", "setting": "[14]", "result": 24.6, "unit": "mL/min/kg"}, {"measurement": "solubility", "setting": "[15]", "result": 32.2, "unit": "µM"}, {"measurement": "fraction unbound", "setting": "[16]", "result": 0.036}, {"measurement": "MIC50", "setting": "[17]", "result": 0.012, "unit": "µg/mL"}, {"measurement": "MIC90", "setting": "[17]", "result": 0.03, "unit": "µg/mL"}, {"measurement": "MIC", "setting": "[18]", "result": 0.035, "unit": "µg/mL"}, {"measurement": "Drug uptake", "setting": "[19]", "result": "Active"}, {"measurement": "Vd", "setting": "[20]", "result": 4.52, "unit": "L/kg"}, {"measurement": "IC50", "setting": "Cytochrome P450 2C8", "result": "> 100", "unit": "µM"}]}
